Laboratory results: patent US20110071094A1, “(D)-ALLOSE INDUCING PROGRAMMED CELL DEATH IN HORMONE REFRACTORY PROSTATE CANCER LINES” (INDUSTRY-ACADEMIC COOPERATION FOUDATION, GYEONGSANG …, priority 2008, published 2011)

Tests used:
Assay type in all cases: cell-based, human
PARP = assay: Western blot analysis of PARP protein in DU145; conditions: DU145, 0, 20 and 40 mM, 72 h
Protocol: (§1) After 0, 20 and 40 mM of D-allose treatments for 72 h, DU145 cell line (1×10^6 cells in triplicate culture plates) was harvested into cell lysis buffer (Cell Signaling, Danvers, Mass., USA) supplemented with 1 mM PMSF. The cells were then sonicated, centrifuged and protein concentration was measured by Bradford assay with the Bio-Rad protein assay solution using bovine serum albumin (BSA) as standard. Proteins (30 μg) were separated on a 12.5% SDS-PAGE under reducing conditions and transferred onto a PVDF membrane (Santa Cruz Biotechnology, Santa Cruz, Calif., USA). Prestained protein marker, broad range: 6-175 kDa (New England Biolabs Inc., Ipswich, Mass., USA) run in parallel for detection of the molecular weights of the proteins. Membrane was blocked with 5% (w/v) skimmed milk in order to reduce non-specific binding and immunoblotting was performed using rabbit derived anti-Bcl-2, anti-Bax, anti-Caspase 3 and anti-PARP antibodies (1:500; Santa Cruz Biotechnology, Santa Cruz, Calif., USA). […] Membrane was probed with a goat derived horseradish peroxidase-conjugated anti-rabbit IgG (1:1000; Santa Cruz Biotechnology, Santa Cruz, Calif., USA), and proteins were detected by the enhanced chemiluminescence (ECL) detection system according to the vendor's protocol (Amersham Biosciences, Piscataway, N.J., USA) followed by X-ray exposure. […]

DU145 cell line = assay: Quantification of apoptosis by annexin-V/PI flow cytometry
Protocol: The Annexin-V-FLUOS Staining Kit (Roche Diagnostics GmbH, Mannheim, Germany) was used for the detection and quantification of the apoptotic cells. This kit uses a dual-staining protocol in which the apoptotic cells are stained with annexin-V (green fluorescence) and the necrotic cells are stained with propidium iodide (PI, red fluorescence). Briefly, DU145 cell line was grown at a density of 1×10^6 cells in triplicate culture plates and then treated with D-allose (0, 20 and 40 mM) for 48 and 72 h. The cells were treated with trypsin and harvested with PBS and processed for labeling with annexin-V and PI by the use of the kit according to the manufacturer's protocol. The fluorescence was measured by flow cytometric analysis, performed on a FACSCalibur (Becton Dickinson, San Jose, Calif., USA) using 488 nm excitation and a 515 nm band pass filter for fluorescein detection and a filter [600 nm for PI detection (FL1: Annexin-V-FLUOS; FL2: PI). Further, apoptotic indices were measured by analysis of fragmented or scattered nuclei and condensed chromosome as the stringent morphological criteria of apoptosis, detectable by confocal microscopy on cells stained with DNA-intercalating dye […] (DAPI). For this purpose, DU145 and PrEC cell lines were exposed to 0, 20 and 40 mM of D-allose for up to 72 h, stained with DAPI (1 μg/ml in methanol), mounted with Prolong Antifade reagent (Molecular Probes, Eugene, Oreg., USA), and images were acquired by use of a confocal laser scanning microscope (Fluoview FV 1000, Olympus, Japan). The numbers of apoptotic nuclei per 100 cells were counted from the five high power fields/slide and apoptotic indices were expressed as a percentage of the untreated controls in each cell line, considering the value as 100%. DU145 cell line was also treated with 0-40 mM of D-glucose for determination of apoptotic indices as mentioned above.

Bax mRNA = assay: RT-PCR of Bax mRNA in DU145; conditions: DU145, 72 h, 0, 20 and 40 mM; relative to reduced Bcl-2 mRNA
Protocol: To identify the relative levels of expression of Bcl-2, Bax and Caspase 3 mRNAs after 0, 20 and 40 mM of D-allose treatments for 72 h, RT-PCR was performed. DU145 cell line (1×10^6 cells in triplicate culture plates) was harvested as mentioned above and total RNA was extracted using TRIzol reagent (Invitrogen, Carlsbad, Calif., USA) following a standard laboratory protocol. The RNA purity and concentrations were determined. Then 2 μg of total RNA was reversely transcribed to single-stranded cDNA using Oligo(dT)12-18 primer (Invitrogen, Carlsbad, Calif., USA) with M-MLV reverse transcriptase (Promega, Madison, Wis., USA). For PCR reaction, 4 μl of cDNA was reacted with 20 pmol each of the forward and reverse primers (Bioneer Corporation, Seoul, South Korea), and GoTaq® Green Master Mix […] containing PCR buffer, 25 mM magnesium chloride, 10 mM dNTP mix and Taq enzyme (Promega, Madison, Wis., USA), and amplified. […] The molecular sizes of the amplified products were determined by comparison with the molecular weight marker (100 by DNAladder; Promega, Madison, Wis., USA) run parallel with the PCR products. The densities of mRNA bands were analyzed by Molecular Analyst™, version 1.4.1 (Bio-Rad, Hercules, Calif., USA).

Bax = assay: Western blot analysis of Bax protein in DU145; conditions: DU145, 40 mM, 72 h
Protocol: as §1

O=C[C@H](O)[C@H](O)[C@H](O)[C@H](O)CO [D-allose]
cleaved PARP product (PARP): concomitant increase | full length PARP protein expression (PARP): remarkable dose-dependent decrease | apoptotic cells (annexin-V/PI) (DU145 cell line; DU145, 20 mM, 48 h, untreated control 1.2%): 5.1% | apoptotic cells (annexin-V/PI) (DU145 cell line; DU145, 20 mM, untreated control 2.3%): 11.9% | apoptotic cells (annexin-V/PI) (DU145 cell line; DU145, 40 mM, 48 h, untreated control 1.2%): 8.7% | apoptotic cells (annexin-V/PI) (DU145 cell line; DU145, 40 mM, untreated control 2.3%): 23.5% | Bax mRNA expression (Bax mRNA): opposite effect | Bax protein expression (Bax): remarkably increased
